From publication PMC9838390, “Discovery and biosynthesis of karnamicins as angiotensin converting enzyme inhibitors” (Nature Communications, 2023) come the findings set out here.

“And” between values parts separate entries of the source, which are not always exact repeats. Equal entries are not always repeated.

Data set [1] in a line: Stability in enzyme reaction buffer. Format: physicochemical. The note with it: reaction buffer (50 mM Tris-HCl, pH 7.5, 30 °C). The procedure:
To further examine the catalytic role of methyltransferase KnmF and monooxygenases KnmB1 and KnmB2 during the karnamicin assembly process, we decided to characterize their enzyme activities in vitro. For KnmF, we synthesized 28 (Fig. 3, Supplementary Figs. 111–116, and Supplementary Table 19), a putative dedicated substrate of KnmF with a trihydroxypyridine core. Subsequently, a time course analysis of the enzyme-catalyzed reaction was performed with KnmF expressed by Escherichia coli BL21 (DE3) cells (Supplementary Fig. 117) and 28. Intriguingly, immediately following the consumption of 28, a compound 30 appeared. The subsequent decrease in abundance of 30 was accompanied by the accumulation of karnamicin E1 (1) (Fig. 4a). […]
The reaction of KnmF was carried out at 30 °C in a 100 µL system containing 50 mM Tris-HCl buffer (pH 7.5), 1 mM compound 28, 2 mM SAM, and 2 μM KnmF. […] After centrifugation (10 min at 13,523×g), the supernatant was analyzed by HPLC-DAD with solvent gradient as follows: T = 0 min, 55% B; T = 13.5 min, 55% B; T = 19 min, 65% B; T = 35 min, 65% B; T = 40 min, 100% B; T = 45 min, 100% B; T = 45.1 min, 55% B; T = 51 min, 55% B (A, H2O + 0.1% CH3COOH, v/v; B, MeCN), and the column temperature was 25 °C (Analytical method B).

The test system of data set [2] is KnmB1. Kind of data set: Hydrogen peroxide formation assay of KnmB1 and variants. Format: biochemical, L. rhizosphaerae NEAU-A2. The note with it: 30 °C, average of 3. How it is done: Hydrogen peroxide formation assay and NADPH oxidation
The hydrogen peroxide formed from KnmB1, KnmB2 and their variants were measured using the Hydrogen Peroxide Assay Kit (Beyotime Industrial Co. Ltd, Shanghai, China)4-5. 5–100 µL of enzyme reaction mixture was added to 100 µL of working reagent (S0038-1). The mixture was incubated for 30 min at 25 °C, at which time the absorbance at 560 nm was measured by NanoDrop 2000c (Fisher Scientific). […]
(§1) Spectral data for new compounds […]
Supplementary Figure 131. H2O2 generation and NADPH oxidation for KnmB2, KnmB1 and their variants. (a) Hydrogen peroxide formation of KnmB2 and variants. […]
(b) Hydrogen peroxide formation of KnmB1 and variants. Reaction conditions: 100 µL system containing 50 mM Tris-HCl buffer (pH 7.5), 1 mM NADPH, 16 μM KnmB2, 17 μM KnmB1 or variants, 0.1 mM compound 24,1 mM SAM, and 2 […]
(1 picture or pasted object on this page, not shown here) […]
μM KnmF at 30 °C for 3h. (c) Hydrogen peroxide formation of KnmB1 and variants.
Reaction conditions: 100µL system containing 50 mM Tris-HCl buffer (pH 7.5), 0.3 mM NADPH, and 6 μM KnmB1 or variants, or 0.1 mM 24 at 30 °C for 30 min. […]
(§2) 2 μM KnmB2 or variants, or 0.1 mM substrate 24/32. […]
(§3) Source data are provided as a Source Data file. […]

Data set [3] deals with KnmB1. The data set is described as follows: NADPH oxidation of KnmB1 and variants (340 nm). Format: biochemical, L. rhizosphaerae NEAU-A2. The settings on record: KnmB1 + compound. The procedure:
Hydrogen peroxide formation assay and NADPH oxidation […]
NADPH detection was carried out in the cuvette by NanoDrop 2000c (Fisher Scientific). NADPH signal at 340 nm was monitored in time using 6220 M–1 cm–1 as […]
as §1
Reaction conditions: 50 mM Tris-HCl buffer (pH 7.5), 0.15 mM NADPH, and 2 μM KnmB1 or KnmB2. (e) NADPH oxidation of KnmB1 and variants. (f) NADPH oxidation of KnmB1 in the presence 24/32/36. (g) NADPH oxidation of KnmB1 and variants in the presence 24. Reaction conditions (e-g) for KnmB1 and their variants: 50 mM Tris-HCl buffer (pH 7.5), 0.15 mM NADPH, and 6 μM KnmB1 or variants, or 0.1 mM substrate 24/32/36. […]
as §2, §3

`CC(C)CCCCc1nc(-c2nc(C(N)=O)c(O)c(O)c2O)cs1` [Compound 28]: the “stability in the reaction buffer” value in data set [1] was “degraded rapidly”.
`COc1cc(-c2csc(CCCC(C)=O)n2)nc(C(N)=O)c1O` [Compound 36]: the “hydrogen peroxide formation of KnmB1 (absorbance UV λ=560 nm), average value” in the data set on KnmB1 [2] (Fig. S131b, 1 mM NADPH, 17 μM KnmB1, 0.1 mM compound, 3 h) came to 0.0940; in the data set with KnmB1 [2] (Fig. S131c, 0.3 mM NADPH, 6 μM KnmB1, 0.1 mM compound, 30 min), 0.0678. Besides, the “NADPH oxidation of KnmB1 in the presence of compound (replicates 1, 2, 3)” value (shortened to “NADPH oxidation of KnmB1 … (replicates 1, 2, 3)”) in the data set with KnmB1 [3] (Time 0) was 0.0000 µM; in the data set on KnmB1 [3] (Time 1) it was 2.6688 µM and 1.0450 µM and 0.7235 µM; with KnmB1 [3] (Time 2), 3.7942 µM and 2.2669 µM and 1.4470 µM; with KnmB1 [3] (Time 3) it was 3.7460 µM and 2.5241 µM and 4.3730 µM; with KnmB1 [3] (Time 4) it was 4.9196 µM and 2.5241 µM and 5.4662 µM; in the data set on KnmB1 [3] (Time 5), 4.7428 µM and 3.0064 µM and 5.6752 µM. Also, the “NADPH oxidation of KnmB1 … (replicates 1, 2, 3)” value with KnmB1 [3] (Time 8) was 5.8360 µM and 3.0064 µM and 8.0225 µM; with KnmB1 [3] (Time 10), 7.2669 µM and 6.4791 µM and 10.8521 µM; with KnmB1 [3] (Time 15), 7.5080 µM and 6.4791 µM and 13.8264 µM; in the data set with KnmB1 [3] (Time 20) it was 10.4502 µM and 12.1865 µM and 17.0257 µM; in the data set on KnmB1 [3] (Time 30), 12.4116 µM and 12.1865 µM and 21.2701 µM; in the data set with KnmB1 [3] (Time 40) it was 13.9068 µM and 22.9261 µM and 27.0579 µM. Also, the “NADPH oxidation of KnmB1 … (replicates 1, 2, 3)” value in the data set with KnmB1 [3] (Time 60) is 18.0547 µM and 22.9261 µM and 35.3698 µM. Moreover, the “NADPH oxidation of KnmB1 in the presence of compound, average value” (“NADPH oxidation of KnmB1 … average value” for short) in the data set with KnmB1 [3] (Time 0) is 0.0000 µM; in the data set on KnmB1 [3] (Time 1), 1.4791 µM; in the data set on KnmB1 [3] (Time 2), 2.5027 µM; in the data set with KnmB1 [3] (Time 3) it was 3.5477 µM; in the data set with KnmB1 [3] (Time 4), 4.3033 µM; in the data set with KnmB1 [3] (Time 5), 4.4748 µM. The “NADPH oxidation of KnmB1 … average value” in the data set with KnmB1 [3] (Time 8) stood at 5.6217 µM; in the data set on KnmB1 [3] (Time 10), 8.1994 µM; in the data set on KnmB1 [3] (Time 15), 9.2712 µM; with KnmB1 [3] (Time 20), 13.2208 µM; with KnmB1 [3] (Time 30) it was 15.2894 µM; in the data set on KnmB1 [3] (Time 40), 21.2969 µM. Moreover, the “NADPH oxidation of KnmB1 … average value” in the data set on KnmB1 [3] (Time 60) is 25.4502 µM.
